12 compounds from publication PMC10586451, “Design, Synthesis, Pharmacological Activities, Structure–Activity Relationship, and In Silico Studies of Novel 5-Substituted-2-(morpholinoimino)-thiazolidin-4-ones” (ACS Omega, 2023) can be followed below.

The nature of test [1]: ABTS cation radical scavenging assay. The note with it: mean ± SEM of three parallel measurements. How it is done: (§1) DMSO solutions of four different concentrations (12.5, 25, 50, and 100 μM) of the synthesized compound 1–26 were prepared. DMSO was used as a control, while BHA and α-TOC were used as antioxidant standards.
The nature of test [2]: DPPH radical scavenging assay. As to conditions: mean ± SEM of three parallel measurements. Here is the method: as §1
For orientation: The DPPH test is a chemical assay of radical scavenging.

In test [3] the target is T1, Acetylcholinesterase (AChE) (Electrophorus electricus, UniProt O42275).
T1 construct: Acetylcholinesterase (AChE) from electric eel; from tissue; host or cells: electric eel
Kind of test: biochemical. As to conditions: for SI for AChE: Selectivity index: IC50 for BChE/IC50 for AChE; for IC50: mean ± SEM of three parallel measurements. Here is the method: (§2) Anticholinesterase activity of all was performed according to the Ellman’s method using a 96-well microplate reader. Acetylcholinesterase (AChE) from electric eel and butyrylcholinesterase (BChE) from horse serum were used. Acetylthiocholine iodide and butyrylthiocholine chloride were utilized as substrates. DTNB (5,50-dithiobis(2-nitrobenzoic) acid was used as a coloring agent to measure the anticholinesterase activity.[43] Measurements were obtained in triplicate.

Test [4] deals with T2, butyrylcholinesterase (BChE) (Equus caballus, UniProt P81908).
T2 construct: butyrylcholinesterase (BChE) from horse serum; from tissue; host or cells: horse serum
Kind of test: biochemical. As to conditions: for SI for BChE: Selectivity index: IC50 for AChE/IC50 for BChE; for IC50: mean ± SEM of three parallel measurements. Here is the method: as §2

In test [5] the target is urease (Canavalia ensiformis, UniProt P07374). Kind of test: biochemical. As to conditions: urease activity IC50, mean ± SEM of three parallel measurements.
The nature of test [6]: β-carotene-linoleic acid assay (antioxidant). As to conditions: mean ± SEM of three parallel measurements. How it is done:
as §1

Test [7] can be described thus: CUPRAC assay (Cu(II) reducing power). The note with it: concentration at 0.500 absorbance; mean ± SEM. Here is the method: as §1
Test [8] has as its target tyrosinase. The format is biochemical. The note with it: mean ± SEM of three parallel measurements.

Each structure is given as a SMILES string.

T1 sequence (O42275 24-633): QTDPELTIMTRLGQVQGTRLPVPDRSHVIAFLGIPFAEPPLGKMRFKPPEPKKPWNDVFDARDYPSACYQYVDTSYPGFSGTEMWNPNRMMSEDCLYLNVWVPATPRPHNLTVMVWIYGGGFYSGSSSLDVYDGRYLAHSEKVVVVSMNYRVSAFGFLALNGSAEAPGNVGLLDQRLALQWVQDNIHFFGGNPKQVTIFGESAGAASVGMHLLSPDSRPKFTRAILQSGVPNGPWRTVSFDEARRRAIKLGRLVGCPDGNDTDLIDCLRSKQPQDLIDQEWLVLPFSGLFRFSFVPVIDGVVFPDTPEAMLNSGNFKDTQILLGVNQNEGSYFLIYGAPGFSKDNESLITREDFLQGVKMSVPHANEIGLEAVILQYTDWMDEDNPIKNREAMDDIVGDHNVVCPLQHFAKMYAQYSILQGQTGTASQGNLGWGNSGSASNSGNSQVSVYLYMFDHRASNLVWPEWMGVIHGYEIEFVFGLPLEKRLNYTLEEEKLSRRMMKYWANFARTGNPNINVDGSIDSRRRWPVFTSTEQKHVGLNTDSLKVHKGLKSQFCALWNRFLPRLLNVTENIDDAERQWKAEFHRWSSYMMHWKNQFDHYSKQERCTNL
T2 sequence (P81908 whole entry): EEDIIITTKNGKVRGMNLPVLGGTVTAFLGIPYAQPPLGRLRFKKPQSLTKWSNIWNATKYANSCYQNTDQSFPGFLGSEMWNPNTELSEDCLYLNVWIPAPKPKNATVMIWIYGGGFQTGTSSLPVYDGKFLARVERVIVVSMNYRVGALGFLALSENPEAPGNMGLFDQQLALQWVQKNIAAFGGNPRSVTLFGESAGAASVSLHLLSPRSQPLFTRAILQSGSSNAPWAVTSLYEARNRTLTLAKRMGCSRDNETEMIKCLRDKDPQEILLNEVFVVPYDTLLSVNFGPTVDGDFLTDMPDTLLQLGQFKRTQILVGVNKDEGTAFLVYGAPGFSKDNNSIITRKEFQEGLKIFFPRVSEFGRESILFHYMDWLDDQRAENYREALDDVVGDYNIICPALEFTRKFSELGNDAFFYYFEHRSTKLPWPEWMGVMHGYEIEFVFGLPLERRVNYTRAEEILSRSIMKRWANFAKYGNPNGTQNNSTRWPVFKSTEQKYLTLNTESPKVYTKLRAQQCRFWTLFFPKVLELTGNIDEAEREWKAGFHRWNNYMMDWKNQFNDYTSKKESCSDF
urease, sequence (P07374 whole entry, looked up): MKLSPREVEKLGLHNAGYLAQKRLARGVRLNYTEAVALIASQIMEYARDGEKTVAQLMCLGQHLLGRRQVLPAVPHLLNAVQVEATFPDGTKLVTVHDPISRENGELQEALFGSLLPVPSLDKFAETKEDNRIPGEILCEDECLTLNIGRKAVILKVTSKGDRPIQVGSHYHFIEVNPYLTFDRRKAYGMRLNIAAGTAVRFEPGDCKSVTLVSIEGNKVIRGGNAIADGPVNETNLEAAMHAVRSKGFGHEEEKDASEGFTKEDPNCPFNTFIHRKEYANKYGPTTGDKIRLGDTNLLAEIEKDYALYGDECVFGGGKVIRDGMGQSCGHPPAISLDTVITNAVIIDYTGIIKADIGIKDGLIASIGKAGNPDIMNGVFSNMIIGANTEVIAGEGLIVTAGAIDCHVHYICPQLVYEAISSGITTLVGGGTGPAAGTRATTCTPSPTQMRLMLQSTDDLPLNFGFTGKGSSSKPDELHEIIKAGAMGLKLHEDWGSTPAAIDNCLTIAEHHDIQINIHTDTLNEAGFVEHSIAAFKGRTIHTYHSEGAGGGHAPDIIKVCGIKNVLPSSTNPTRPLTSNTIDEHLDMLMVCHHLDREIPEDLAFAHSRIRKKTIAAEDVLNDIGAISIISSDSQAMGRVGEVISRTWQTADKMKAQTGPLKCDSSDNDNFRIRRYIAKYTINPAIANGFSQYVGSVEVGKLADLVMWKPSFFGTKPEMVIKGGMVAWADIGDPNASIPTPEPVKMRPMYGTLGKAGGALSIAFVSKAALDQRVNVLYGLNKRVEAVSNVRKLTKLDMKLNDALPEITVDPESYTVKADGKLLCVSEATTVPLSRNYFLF

For `CN(C)c1ccc(C=C2SC(=NN3CCOCC3)N(c3ccccc3)C2=O)cc1` [Compound 10], the concentration for half-maximal inhibition (IC50) – broadly, the concentration needed to halve the response being measured – in test [1] is 30.1 ± 0.69 µM; in test [2], 37.43 ± 0.29 µM; in test [3], 26.48 ± 0.25 µM; in test [4], 37.53 ± 0.2 µM; in test [5], 49.3 ± 0.55 µM; in test [6], 34.23 ± 0.2 µM. Besides, in test [8], the IC50 amounted to 25000 ± 670 µM. Further, the “SI for AChE” value in test [3] was 1.42. In addition, the “SI for BChE” value in test [4] stood at 0.71. In addition, the “CUPRAC assay A0.5” value in test [7] came out at 28.65 ± 0.00 µM.

As to `S=C(Nc1ccccc1)NN1CCOCC1` [Compound 1, 1-Morpholino-3-phenylthiyourea], the IC50 in test [1] was 48.9 ± 0.78 µM; in test [2], 253.4 ± 0.6 µM; in test [3] it was 130 ± 0.18 µM; in test [4], 118.5 ± 0.34 µM; in test [5], 82.54 ± 0.29 µM; in test [6], 79.37 ± 0.38 µM. Moreover, in test [8], the IC50 turned out to be 35130 ± 70 µM. Also, in test [3], the “SI for AChE” value stood at 0.91. For the same compound, the “SI for BChE” value in test [4] amounted to 1.10. The “CUPRAC assay A0.5” value in test [7] worked out at 45.18 ± 0.01 µM.

Consider `O=C1C(=Cc2cccnc2)SC(=NN2CCOCC2)N1c1ccccc1` [Compound 22, 2-(Morpholinoimino)-3-phenyl-5-(pyridin-3-ylmethylene)thiazolidin-4-one], for which the IC50 in test [1] was found to be 30.11 ± 0.28 µM; in test [2] it was 34.77 ± 0.22 µM; in test [3], 24.8 ± 0.3 µM; in test [4], 33 ± 0.84 µM; in test [5], 26.2 ± 0.47 µM; in test [6] it was 31.6 ± 0.79 µM. The compound also gave a concentration for half-maximal inhibition (IC50) in test [8] of 9130 ± 550 µM. In addition, the “SI for AChE” value in test [3] is 1.33. The “SI for BChE” value in test [4] is reported as 0.75. Further, the “CUPRAC assay A0.5” value in test [7] came out at 30.42 ± 0.01 µM.

For the compound `O=C1C(=Cc2ccc(O)cc2)SC(=NN2CCOCC2)N1c1ccccc1` [Compound 5, 5-(4-Hydroxybenzaldehyde)-2-(morpholinoimino)-3 phenylthiazolidine-4-one], the IC50 in test [1] was determined as 28.74 ± 0.19 µM; in test [2], 42.8 ± 0.53 µM; in test [3], 27 ± 0.48 µM; in test [4], 37.1 ± 0.57 µM; in test [5], 55.6 ± 0.81 µM; in test [6] it was 36.2 ± 0.46 µM. In test [8], this compound displayed an IC50 of 28000 ± 350 µM. Moreover, in test [3], the “SI for AChE” value amounted to 1.38. In test [4], the “SI for BChE” value turned out to be 0.73. Further, the “CUPRAC assay A0.5” value in test [7] is 24.48 ± 0.02 µM.

For the compound `O=C1CSC(=NN2CCOCC2)N1c1ccccc1` [Compound 2, 2-(Morpholinoimino)-3-phenylthiazolidin-4-one], the IC50 is 31.66 ± 0.13 µM in test [1]; 101.9 ± 0.61 µM in test [2]; 44.3 ± 0.75 µM in test [3]; 66.44 ± 0.41 µM in test [4]; 65.4 ± 0.67 µM in test [5]; 40.43 ± 0.11 µM in test [6]. Moreover, in test [8], inhibition was half-maximal at 30200 ± 610 µM (IC50). In test [3], the “SI for AChE” value is 1.50. Further, in test [4], the “SI for BChE” value came out at 0.67. Also, the “CUPRAC assay A0.5” value in test [7] is 36.35 ± 0.00 µM.

For the compound `O=C1C(=Cc2ccncc2)SC(=NN2CCOCC2)N1c1ccccc1` [Compound 23, 2-(Morpholinoimino)-3-phenyl-5-(pyridin-4-ylmethylene)thiazolidin-4-one], the 50% inhibitory concentration (IC50) is 32.72 ± 0.19 µM in test [1]; 36.14 ± 0.16 µM in test [2]; 19.7 ± 0.54 µM in test [3]; 25.4 ± 0.26 µM in test [4]; 25 ± 0.54 µM in test [5]; 34.6 ± 0.5 µM in test [6]. Also, half-maximal inhibition in test [8] (IC50) required 8050 ± 110 µM. Moreover, the “SI for AChE” value in test [3] is given as 1.29. In addition, the “SI for BChE” value in test [4] amounted to 0.78. In test [7], the “CUPRAC assay A0.5” value was 31.12 ± 0.00 µM.

With `Cn1cccc1C=C1SC(=NN2CCOCC2)N(c2ccccc2)C1=O` [Compound 19], the IC50 in test [1] was 29.88 ± 0.2 µM; in test [2], 34.45 ± 0.05 µM; in test [3], 20.6 ± 0.55 µM; in test [4], 29.7 ± 0.72 µM; in test [5], 18.2 ± 0.5 µM; in test [6] it was 30.8 ± 0.47 µM. In addition, the IC50 in test [8] is 19280 ± 90 µM. Also, the “SI for AChE” value in test [3] is on record as 1.44. The “SI for BChE” value in test [4] was determined as 0.69. Moreover, the “CUPRAC assay A0.5” value in test [7] amounted to 25.67 ± 0.00 µM.

As to `O=C1C(=Cc2ccc([N+](=O)[O-])cc2)SC(=NN2CCOCC2)N1c1ccccc1` [Compound 9, 5-(4-Nitrobenzylidene)-2-(morpholinoimino)-3-phenylthiazolidin-4-one], the 50% inhibitory concentration (IC50) amounted to 25.2 ± 0.37 µM in test [1]; 32.3 ± 0.55 µM in test [2]; 29.8 ± 0.81 µM in test [3]; 40.19 ± 0.19 µM in test [4]; 51.7 ± 0.12 µM in test [5]; 30.44 ± 0.17 µM in test [6]. Besides, the midpoint of inhibition in test [8], the IC50, lay at 25420 ± 120 µM. Besides, in test [3], the “SI for AChE” value was found to be 1.35. Further, in test [4], the “SI for BChE” value stood at 0.74. In test [7], the “CUPRAC assay A0.5” value was found to be 21.87 ± 0.01 µM.

Take `O=C1C(=Cc2ccc3[nH]ccc3c2)SC(=NN2CCOCC2)N1c1ccccc1` [Compound 25, 5-((1H-Indole-5-yl)methylene)-2-(morpholinoimino)-3-phenylthiazolidin-4-one]: the IC50 was found to be 34.05 ± 0.27 µM in test [1]; 38.2 ± 0.88 µM in test [2]; 19.8 ± 0.5 µM in test [3]; 25.5 ± 0.78 µM in test [4]; 21.7 ± 0.06 µM in test [5]; 33.6 ± 0.73 µM in test [6]. In test [8], this compound showed a half-maximal inhibitory concentration (IC50) of 8400 ± 640 µM. Besides, in test [3], the “SI for AChE” value came out at 1.29. Besides, the “SI for BChE” value in test [4] turned out to be 0.78. In addition, in test [7], the “CUPRAC assay A0.5” value stood at 39.50 ± 0.01 µM.

On to `O=C1C(=Cc2ccccc2)SC(=NN2CCOCC2)N1c1ccccc1` [Compound 3, 5-(Benzylidene)-2-(morpholinoimino)-3-phenylthiazolidine-4-one], for which the IC50 in test [1] came out at 31.59 ± 0.04 µM; in test [2], 52.13 ± 0.29 µM; in test [3], 34.2 ± 0.63 µM; in test [4], 48.72 ± 0.18 µM; in test [5], 56.8 ± 0.15 µM; in test [6], 39.8 ± 0.67 µM. In test [8], this compound displayed an IC50 of 29400 ± 490 µM. The “SI for AChE” value in test [3] is given as 1.42. Moreover, in test [4], the “SI for BChE” value is 0.70. Moreover, the “CUPRAC assay A0.5” value in test [7] amounted to 35.89 ± 0.01 µM.

Regarding `O=C1C(=Cc2ccc3ccccc3n2)SC(=NN2CCOCC2)N1c1ccccc1` [Compound 26, 2-(Morpholinoimino)-3-phenyl-5-(quinolin-2-ylmethylene)thiazolidin-4-one], the IC50 in test [1] amounted to 26.5 ± 0.63 µM; in test [2] it was 29.7 ± 0.9 µM; in test [3] it was 19.8 ± 0.37 µM; in test [4], 25.7 ± 0.53 µM; in test [5] it was 21.5 ± 0.44 µM; in test [6], 22.4 ± 0.3 µM. In test [8], this compound displayed an IC50 of 8760 ± 900 µM. The “SI for AChE” value in test [3] was 1.30. Also, the “SI for BChE” value in test [4] turned out to be 0.77. Further, the “CUPRAC assay A0.5” value in test [7] was determined as 25.91 ± 0.02 µM.

Take `COc1ccc(C=C2SC(=NN3CCOCC3)N(c3ccccc3)C2=O)cc1` [Compound 6, 5-(4-(Methoxy)benzylidene)-2-(morpholinoimino)-3-phenylthiazolidin-4-one]: the IC50 in test [1] worked out at 30.6 ± 0.05 µM; in test [2] it was 43.46 ± 0.14 µM; in test [3], 29 ± 0.64 µM; in test [4], 36.81 ± 0.19 µM; in test [5], 50.78 ± 0.08 µM; in test [6], 37.07 ± 0.22 µM. In addition, the IC50 in test [8] was found to be 27990 ± 170 µM. Moreover, in test [3], the “SI for AChE” value turned out to be 1.27. Moreover, the “SI for BChE” value in test [4] came out at 0.79. Also, the “CUPRAC assay A0.5” value in test [7] was found to be 32.68 ± 0.01 µM.
